{"source": "paper PMC5908295", "about": "(Oncotarget, 2018)", "key": {"MOLM-6": {"test_system": "MOLM-6", "test": "MTS viability assay, 72 h", "conditions": "72 h", "protocol": "(§3) 15-25 ×10^3 of MV-4-11, MOLM-13, MOLM-14, MOLM-16, KG-1, Eol-1, SKM-1, PL-21, GDM-1, SKNO-1, RS4;11, Kasumi-3 and Kasumi-6 cells were seeded in 150 μL of culture medium onto individual wells in a 96 well plates, in triplicates. On the same day, 50 μL of medium containing tested inhibitor was added to the wells. Each compound was tested at 8 concentrations, in triplicates. As a negative control, the medium containing 0.1% DMSO was used. […] Staurosporine was used at 10 μM as a positive control. One the day of drug addition, basal signal from untreated cells was measured from in triplicate to determine time zero (T0). […] GI50 and LC50 values were extrapolated from a variable (four-parameter) dose-response curve fitted in GraphPad Prism."}, "[1]": {"test": "Blood biochemistry in mice with MV-4-11 tumors", "type": "in vivo", "conditions": "treatment day 15", "from_the_text": "All animals were handled in strict accordance with good animal practice as defined by the relevant national and local animal welfare bodies. SCID and SCID/beige C.B-17 mice were provided by Harlan Laboratories or Charles River Laboratories, and were maintained in pathogen free conditions. For the xenograft experiments, age-matched (9-11 weeks old) females were used. 5×10^6 of MV-4-11 or MOLM-16 cells were suspended in a mixture (1:1, v:v) of PBS with Matrigel (BD Biosciences,) and injected subcutaneously (sc), in a total volume of 100 μL, above the groin on the right hind limb. For MOLM-13 and KG-1 cells, a mixture (3:1, v:v) of PBS and Matrigel HC (BD Bioscience,) was used to inject 5 × 10^6 of cell per mouse subcutaneously (sc), in a total volume of 100 μL. When tumors reached 100-130 mm^3, mice were randomized into uniform groups (6-9 mice per group) and subsequently administered the compound. […] At the end of the experiment, mice were anesthetized with isofluran and blood samples for total cell counts and biochemistry were obtained by retro-orbital bleeding. […] 5×10^6 cells suspended in a mixture (3:1, v:v) of PBS and Matrigel were injected as described above. When the tumor volume reached ~120 mm^3, mice were randomized into uniform groups (5 mice per group) and the compound then administered. […] Tumor volume was monitored every second day and calculated using the formula: TV = (a^2×b)/2, where “a” is the short axis in millimeters, and “b” is the long axis in millimeters. Body weight was assessed every day.\nSupplementary Table 9: Related to Figure 5C. […] The assessment of\nwas performed on treatment day 15.\nAST – Aspartate aminotransferase, ALT – Alanine transaminase, ALP – alkaline phosphatase, UREA – blood urea nitrogen,\nCREA – Creatinine, CK – Creatine kinase, TP- total protein; ALB – Albumin. […]"}, "SIG-M5": {"test_system": "SIG-M5", "test": "MTS viability assay, 72 h", "conditions": "Homo sapiens, SIG-M5, 72 h", "protocol": "On the same day, 50 μL of medium containing tested inhibitor was added to the wells. Each compound was tested at 8 concentrations, in triplicates. As a negative control, the medium containing 0.1% DMSO was used. […] Staurosporine was used at 10 μM as a positive control. One the day of drug addition, basal signal from untreated cells was measured from in triplicate to determine time zero (T0). […] GI50 and LC50 values were extrapolated from a variable (four-parameter) dose-response curve fitted in GraphPad Prism."}, "EOL-1": {"test_system": "EOL-1", "test": "MTS viability assay, 72 h", "conditions": "Homo sapiens, EOL1, 72 h", "protocol": "as §3"}, "[2]": {"test_system": "S6 phosphorylation (Ser235/236) in MOLM-13 cells", "test": "S6 phosphorylation, Western blot", "type": "cell-based", "conditions": "Homo sapiens; MOLM-13, 4 hours; read-out: IC50 S6 phosphorylation (Ser235/236), Western blotting", "method": "(§1) Cells were collected, washed twice with cold PBS, and lysed in RIPA buffer and kept on ice for 10 min. Tumor specimens from xenograft studies were homogenized in RIPA buffer using OMNI TH Tissue Homogenizer and kept on ice for 30 min. After incubation, cell and tumor lysates were centrifuged at 13,000×g at 4°C for 10 min and the supernatants were stored at −80°C until use. Protein concentration was measured using the Bradford method. For SDS-PAGE, 50 μg of protein in the Laemmli sample buffer was loaded onto 10% polyacrylamide gels and electrophoresed. Thereafter, proteins were transferred onto polyvinylidene fluoride (PVDF) membranes (Millipore). After blocking with 5% non-fat dry milk/TBS-T or 2% BSA/TBS-T, membranes were incubated with specific primary antibodies (listed in Supplementary Table 2) at 4 °C overnight. After extensive washing in PBS-T, membranes were incubated for 60 min with appropriate secondary peroxidase-conjugated IgG. The immunoreactive proteins were detected using an enhanced chemiluminescence (ECL) substrate (GE Healthcare) and visualized with Hyperfilm-ECL (GE Healthcare Biosciences)."}, "[3]": {"test_system": "S6 phosphorylation (Ser235/236) in KG-1 cells", "test": "S6 phosphorylation, Western blot", "type": "cell-based", "conditions": "Homo sapiens; KG-1, 4 hours; read-out: IC50 S6 phosphorylation (Ser235/236), Western blotting", "method": "as §1"}, "[4]": {"test_system": "S6 phosphorylation (Ser235/236) in MV-4-11 cells", "test": "S6 phosphorylation, Western blot", "type": "cell-based", "conditions": "Homo sapiens, MV4-11; MV-4-11, 4 hours; read-out: IC50 S6 phosphorylation (Ser235/236), Western blotting", "method": "as §1"}, "[5]": {"test_system": "S6 phosphorylation (Ser235/236) in MOLM-16 cells", "test": "S6 phosphorylation, Western blot", "type": "cell-based", "conditions": "MOLM16; MOLM-16, 4 hours; read-out: IC50 S6 phosphorylation (Ser235/236), Western blotting", "method": "as §1"}, "[6]": {"test": "Metabolic stability, liver S9 fraction", "type": "in vitro ADME", "conditions": "Rat, 37 °C, read-out: Liver S9 fraction t1/2 (converted)"}, "[7]": {"test_system": "S6 phosphorylation (Ser235/236) in MOLM-13 cells", "test": "S6 phosphorylation, flow cytometry", "type": "cell-based", "conditions": "Homo sapiens; MOLM-13, 4 hours", "method": "(§2) For biomarker experiments, MV-4-11, MOLM-13 and KG-1 cells were seeded at 1 × 10^6 in 3 ml of medium, while MOLM-16 cells were seeded at 1 × 10^6 in 4 ml of medium and left for ~ 18 hours (37°C, 5% CO2). […] Final concertation of DMSO was 0.1%. After 4h of incubation cells were harvested, centrifuged and washed with ice-cold PBS. Cells were fixed with 4% paraformaldehyde buffered with PBS and permeabilized with 90% methanol. Cells were incubated with primary antibody (S6 phopspho-Ser235/236, Cell Signaling, Cat. No: 4856) diluted 1:200 in 0.5% BSA/PBS. […] Cells were analyzed on Flow Cytometer BD LSR II with an excitation wavelength of 488 nm and peak emission 590 nm."}, "[8]": {"test_system": "S6 phosphorylation (Ser235/236) in KG-1 cells", "test": "S6 phosphorylation, flow cytometry", "type": "cell-based", "conditions": "Homo sapiens; KG-1, 4 hours", "method": "as §2"}, "[9]": {"test_system": "S6 phosphorylation (Ser235/236) in MV-4-11 cells", "test": "S6 phosphorylation, flow cytometry", "type": "cell-based", "conditions": "Homo sapiens, MV4-11; MV-4-11, 4 hours", "method": "as §2"}, "[10]": {"test_system": "S6 phosphorylation (Ser235/236) in MOLM-16 cells", "test": "S6 phosphorylation, flow cytometry", "type": "cell-based", "conditions": "MOLM16; MOLM-16, 4 hours", "method": "as §2"}}}
{"smiles": "CC(C)n1c(C2CCNCC2)nc2c([N+](=O)[O-])c(Br)c(Br)cc21", "note": "[SEL24-B489, 5,6-dibromo-4-nitro-2-(piperidin-4-yl)-1-(propan-2-yl)-1H-1,3-benzodiazole]", "values": [{"measurement": "GI50", "setting": "MOLM-6", "result": 449, "unit": "nM"}, {"measurement": "CC50", "setting": "MOLM-6; read-out: LC50", "result": 7200, "unit": "nM"}, {"measurement": "ALB", "setting": "[1]; SEL24-B489 25 mg/kg", "result": 5.3, "unit": "g/dL"}, {"measurement": "ALP", "setting": "[1]; SEL24-B489 25 mg/kg", "result": 94.2, "unit": "U/L"}, {"measurement": "AST", "setting": "[1]; SEL24-B489 25 mg/kg", "result": 202.4, "unit": "U/L"}, {"measurement": "CK", "setting": "[1]; SEL24-B489 25 mg/kg", "result": 2076, "unit": "U/L"}, {"measurement": "CREA", "setting": "[1]; SEL24-B489 25 mg/kg", "result": 0.40, "unit": "mg/dL"}, {"measurement": "K", "setting": "[1]; SEL24-B489 25 mg/kg", "result": 5.3, "unit": "mM"}, {"measurement": "TP", "setting": "[1]; SEL24-B489 25 mg/kg", "result": 5.6, "unit": "g/dL"}, {"measurement": "UREA", "setting": "[1]; SEL24-B489 25 mg/kg", "result": 6.0, "unit": "mmol/L"}, {"measurement": "ALB", "setting": "[1]; SEL24-B489 50 mg/kg", "result": 4.4, "unit": "g/dL"}, {"measurement": "ALP", "setting": "[1]; SEL24-B489 50 mg/kg", "result": 97.2, "unit": "U/L"}, {"measurement": "ALT", "setting": "[1]; SEL24-B489 50 mg/kg", "result": 49.4, "unit": "U/L"}, {"measurement": "AST", "setting": "[1]; SEL24-B489 50 mg/kg", "result": 135.2, "unit": "U/L"}, {"measurement": "CK", "setting": "[1]; SEL24-B489 50 mg/kg", "result": 1206, "unit": "U/L"}, {"measurement": "CREA", "setting": "[1]; SEL24-B489 50 mg/kg", "result": 0.49, "unit": "mg/dL"}, {"measurement": "K", "setting": "[1]; SEL24-B489 50 mg/kg", "result": 5.3, "unit": "mM"}, {"measurement": "Na", "setting": "[1]; SEL24-B489 50 mg/kg", "result": 141, "unit": "mM"}, {"measurement": "TP", "setting": "[1]; SEL24-B489 50 mg/kg", "result": 5.1, "unit": "g/dL"}, {"measurement": "UREA", "setting": "[1]; SEL24-B489 50 mg/kg", "result": 6.6, "unit": "mmol/L"}, {"measurement": "GI50", "setting": "SIG-M5", "result": 806, "unit": "nM"}, {"measurement": "CC50", "setting": "SIG-M5; read-out: LC50", "result": 3440, "unit": "nM"}, {"measurement": "GI50", "setting": "EOL-1", "result": 266, "unit": "nM"}, {"measurement": "IC50", "setting": "[2]", "result": 3, "unit": "nM"}, {"measurement": "IC50", "setting": "[3]", "result": 31, "unit": "nM"}, {"measurement": "IC50", "setting": "[4]", "result": 1, "unit": "nM"}, {"measurement": "IC50", "setting": "[5]", "result": 35, "unit": "nM"}, {"measurement": "half-life at 1 µM", "setting": "[6]", "result": 4.3, "unit": "h"}, {"measurement": "IC50", "setting": "[7]", "result": 102, "unit": "nM"}, {"measurement": "IC50", "setting": "[8]", "result": 195, "unit": "nM"}, {"measurement": "IC50", "setting": "[9]", "result": 13, "unit": "nM"}, {"measurement": "IC50", "setting": "[10]", "result": 58, "unit": "nM"}]}
